# Literature values, collected in patent publication US10471156B2, “Pharmaceutical composition comprising amorphous lenalidomide” (SYNTHON B.V., priority 2014, dated 2019).
Compound,aqueous solubility (water),solubility in water
2-hydroxypropyl-β-cyclodextrin,exceeding 600 mg/ml,–
"Nc1cccc2c1CN(C1CCC(=O)NC1=O)C2=O (racemic) [Lenalidomide, (RS)-3-(4-Amino-1-oxo 1,3-dihydro-2H-isoindol-2-yl)piperidine-2,6-dione]",–,slightly soluble
